Source: ChEMBL document CHEMBL5532756, “Phenylthiazoles with potent & optimum selectivity toward Clostridium difficile” (RSC Med Chem, 2024)
≈ marks a conversion by molar mass, not a printed value.

Columns and labels:
Staphylococcus aureus = assay: Antimicrobial activity against methicillin-resistant Staphylococcus aureus USA300; assay type: functional
Clostridioides difficile [1] = assay: Antimicrobial activity against Clostridioides difficile ATCC BAA-1870; assay type: functional
Neisseria gonorrhoeae = assay: Antimicrobial activity against Neisseria gonorrhoeae 194; assay type: functional
Candida albicans = assay: Antimicrobial activity against Candida albicans ATCC 64124; assay type: functional
Escherichia coli [2] = assay: Antimicrobial activity against Escherichia coli BW25113; assay type: functional
Escherichia coli [3] = assay: Antimicrobial activity against Escherichia coli JW55031 harboring TolC mutant; assay type: functional
Lactobacillus crispatus = assay: Antibacterial activity against Lactobacillus crispatus HM-420; assay type: functional
Lactobacillus gasseri = assay: Antibacterial activity against Lactobacillus gasseri HM-400; assay type: functional
Clostridioides difficile [4] = assay: Antibacterial activity against Clostridioides difficile ATCC 43598; assay type: functional
Bifidobacterium breve [5] = assay: Antibacterial activity against Bifidobacterium breve HM-1120; assay type: functional
Clostridioides difficile [6] = assay: Antibacterial activity against Clostridioides difficile I 13; assay type: functional
[7] = Antibacterial activity against Bifidobacterium longum subsp. Longum HM-845; assay type: functional
Bacteroides fragilis [8] = assay: Antibacterial activity against Bacteroides fragilis HM-709; assay type: functional
Bifidobacterium breve [9] = assay: Antibacterial activity against Bifidobacterium breve HM-411; assay type: functional
Lacticaseibacillus casei = assay: Antibacterial activity against Lactobacillus casei ATCC 334; assay type: functional
Bacteroides fragilis [10] = assay: Antibacterial activity against Bacteroides fragilis HM-714; assay type: functional
Clostridioides difficile [11] = assay: Antibacterial activity against Clostridioides difficile I 11; assay type: functional
Phocaeicola dorei = assay: Antibacterial activity against Bacteroides dorei HM-719; assay type: functional
Clostridioides difficile [12] = assay: Antibacterial activity against Clostridioides difficile P7; assay type: functional
[13] = Cytotoxicity against African green monkey Vero cells assessed as cell viability at 0.5 to 64 ug/ml relative to control; assay type: toxicity, cell-based; conditions: chlorocebus sabaeus, at 0.5 to 64 µg/mL, dose 0.5-64 µg/ml, read-out: Activity
HRT-18 cell line = assay: Cytotoxicity against human HRT-18 cell line assessed as cell viability upto 64 ug/ml; assay type: toxicity, cell-based; conditions: dose < 64 µg/ml

SMILES	MIC (Staphylococcus aureus) [µg/mL]	MIC (Clostridioides difficile [1]) [µg/mL]	MIC (Neisseria gonorrhoeae) [µg/mL]	MIC (Candida albicans) [µg/mL]	MIC (Escherichia coli [2]) [µg/mL]	MIC (Escherichia coli [3]) [µg/mL]	other results
Cc1nc(-c2ccc3ccccc3c2)sc1-c1ccnc(NCCN(C)C)n1	16 (≈ 41.1 µM)	16 (≈ 41.1 µM)	> 64	16 (≈ 41.1 µM)	> 64	16 (≈ 41.1 µM)	–
Cc1nc(-c2ccc3ccccc3c2)sc1-c1ccnc(NC(CO)CO)n1	> 64	64 (≈ 163 µM)	64 (≈ 163 µM)	> 64	> 64	> 64	–
Cc1ncc([N+](=O)[O-])n1CCO [METRONIDAZOLE]	–	0.25 (≈ 1.46 µM)	–	–	–	–	MIC (Lactobacillus crispatus): > 8 µg/mL; MIC (Lactobacillus gasseri): > 8 µg/mL; MIC (Clostridioides difficile [4]): 0.25 µg/mL (≈ 1.46 µM); MIC (Bifidobacterium breve [5]): > 8 µg/mL; MIC (Clostridioides difficile [6]): 0.25 µg/mL (≈ 1.46 µM); MIC [7]: 0.5 µg/mL (≈ 2.92 µM); MIC (Bacteroides fragilis [8]): 1 µg/mL (≈ 5.84 µM); MIC (Bifidobacterium breve [9]): > 8 µg/mL; MIC (Lacticaseibacillus casei): > 8 µg/mL; MIC (Bacteroides fragilis [10]): 1 µg/mL (≈ 5.84 µM); MIC (Clostridioides difficile [11]): 0.5 µg/mL (≈ 2.92 µM); MIC (Phocaeicola dorei): 0.25 µg/mL (≈ 1.46 µM); MIC (Clostridioides difficile [12]): 0.25 µg/mL (≈ 1.46 µM)
Cc1nc(-c2ccc3ccccc3c2)sc1-c1ccnc(NC[C@@H](O)CO)n1	> 64	64 (≈ 163 µM)	> 64	> 64	> 64	> 64	–
Cc1nc(-c2ccc3ccccc3c2)sc1-c1ccnc(N[C@H]2CC[C@H](N)CC2)n1	8 (≈ 19.3 µM)	32 (≈ 77 µM)	> 64	16 (≈ 38.5 µM)	> 64	> 64	–
CN[C@H](CC(C)C)C(=O)N[C@H]1C(=O)N[C@@H](CC(N)=O)C(=O)N[C@H]2C(=O)N[C@H]3C(=O)N[C@H](C(=O)N[C@H](C(=O)O)c4cc(O)cc(O)c4-c4cc3ccc4O)[C@H](O)c3ccc(c(Cl)c3)Oc3cc2cc(c3O[C@@H]2O[C@H](CO)[C@@H](O)[C@H](O)[C@H]2O[C@H]2C[C@](C)(N)[C@H](O)[C@H](C)O2)Oc2ccc(cc2Cl)[C@H]1O [VANCOMYCIN]	–	1 (≈ 0.69 µM)	–	–	–	–	MIC (Lactobacillus crispatus): 0.5 µg/mL (≈ 0.345 µM); MIC (Lactobacillus gasseri): > 8 µg/mL; MIC (Clostridioides difficile [4]): 0.5 µg/mL (≈ 0.345 µM); MIC (Bifidobacterium breve [5]): 0.25 µg/mL (≈ 0.173 µM); MIC (Clostridioides difficile [6]): 0.5 µg/mL (≈ 0.345 µM); MIC [7]: 0.125 µg/mL (≈ 0.0863 µM); MIC (Bacteroides fragilis [8]): 8 µg/mL (≈ 5.52 µM); MIC (Bifidobacterium breve [9]): 0.25 µg/mL (≈ 0.173 µM); MIC (Lacticaseibacillus casei): > 8 µg/mL; MIC (Bacteroides fragilis [10]): 8 µg/mL (≈ 5.52 µM); MIC (Clostridioides difficile [11]): 0.5 µg/mL (≈ 0.345 µM); MIC (Phocaeicola dorei): 8 µg/mL (≈ 5.52 µM); MIC (Clostridioides difficile [12]): 0.5 µg/mL (≈ 0.345 µM)
Cc1nc(-c2ccc3ccccc3c2)sc1-c1ccnc(N2CCCCC2CN)n1 (stereo unspecified)	> 64	64 (≈ 154 µM)	> 64	16 (≈ 38.5 µM)	> 64	> 64	–
Cc1nc(-c2ccc3ccccc3c2)sc1-c1ccnc(NCCCN)n1	> 64	64 (≈ 170 µM)	> 64	> 64	> 64	> 64	–
Cc1nc(-c2ccc3ccccc3c2)sc1-c1ccnc(N2CCC[C@H]2CO)n1	> 64	64 (≈ 159 µM)	> 64	> 64	> 64	> 64	–
Cc1nc(-c2ccc3ccccc3c2)sc1-c1ccnc(NCC(O)CO)n1 (racemic)	> 64	8 (≈ 20.4 µM)	64 (≈ 163 µM)	> 64	> 64	> 64	–
Cc1nc(-c2ccc3ccccc3c2)sc1-c1ccnc(-c2ccncc2)n1	> 64	> 64	> 64	> 64	> 64	> 64	–
Cc1nc(-c2ccc3ccccc3c2)sc1-c1ccnc(NC[C@H](O)CO)n1	> 64	64 (≈ 163 µM)	> 64	> 64	> 64	> 64	–
Cc1nc(-c2ccc3ccccc3c2)sc1-c1ccnc(N2CCC(N)C2)n1 (stereo unspecified)	8 (≈ 20.6 µM)	16 (≈ 41.3 µM)	> 64	8 (≈ 20.6 µM)	> 64	> 64	–
Cc1nc(-c2ccc3ccccc3c2)sc1-c1ccnc(N[C@@H]2CCCC[C@@H]2N)n1 (relative stereo)	4 (≈ 9.63 µM)	8 (≈ 19.3 µM)	32 (≈ 77 µM)	8 (≈ 19.3 µM)	> 64	8 (≈ 19.3 µM)	–
Cc1nc(-c2ccc3ccccc3c2)sc1-c1ccnc(NCCCO)n1	> 64	64 (≈ 170 µM)	> 64	> 64	> 64	> 64	–
Cc1nc(-c2ccc3ccccc3c2)sc1-c1ccnc(-c2ccccn2)n1	> 64	0.03 (≈ 0.0788 µM)	> 64	> 64	> 64	> 64	MIC (Lactobacillus crispatus): > 64 µg/mL; MIC (Lactobacillus gasseri): > 64 µg/mL; MIC (Clostridioides difficile [4]): 0.125 µg/mL (≈ 0.329 µM); MIC (Bifidobacterium breve [5]): > 64 µg/mL; MIC (Clostridioides difficile [6]): 0.06 µg/mL (≈ 0.158 µM); MIC [7]: > 64 µg/mL; viability [13]: 100%; MIC (Bacteroides fragilis [8]): > 64 µg/mL; MIC (Bifidobacterium breve [9]): > 64 µg/mL; MIC (Lacticaseibacillus casei): > 64 µg/mL; Activity (HRT-18 cell line): Non-Toxic; MIC (Bacteroides fragilis [10]): > 64 µg/mL; MIC (Clostridioides difficile [11]): 0.03 µg/mL (≈ 0.0788 µM); MIC (Phocaeicola dorei): > 64 µg/mL; MIC (Clostridioides difficile [12]): 0.125 µg/mL (≈ 0.329 µM)
Cc1nc(-c2ccc3ccccc3c2)sc1-c1ccnc(NCC(=N)N)n1	> 64	32 (≈ 85.5 µM)	> 64	> 64	> 64	> 64	–
Cc1nc(-c2ccc3ccccc3c2)sc1-c1ccnc(N[C@@H]2CCCC[C@H]2N)n1 (relative stereo)	4 (≈ 9.63 µM)	16 (≈ 38.5 µM)	64 (≈ 154 µM)	8 (≈ 19.3 µM)	> 64	8 (≈ 19.3 µM)	–
Cc1nc(-c2ccc3ccccc3c2)sc1-c1ccnc(-c2cccnc2)n1	> 64	> 64	> 64	> 64	> 64	> 64	–
Cc1nc(-c2ccc3ccccc3c2)sc1-c1ccnc(NCCO)n1	> 64	64 (≈ 177 µM)	> 64	1 (≈ 2.76 µM)	> 64	> 64	–
Cc1nc(-c2ccc3ccccc3c2)sc1-c1ccnc(N2CC[C@H](N(C)C)C2)n1	32 (≈ 77 µM)	32 (≈ 77 µM)	> 64	32 (≈ 77 µM)	> 64	> 64	–
Cc1nc(-c2ccc3ccccc3c2)sc1-c1ccnc(N2CCC[C@@H]2CO)n1	> 64	64 (≈ 159 µM)	32 (≈ 79.5 µM)	> 64	> 64	> 64	–
Cc1nc(-c2ccc3ccccc3c2)sc1-c1ccnc(N2CC[C@@H](N(C)C)C2)n1	32 (≈ 77 µM)	64 (≈ 154 µM)	> 64	64 (≈ 154 µM)	64 (≈ 154 µM)	> 64	–
Cc1nc(-c2ccc3ccccc3c2)sc1-c1ccnc(N2CCC[C@@H]2C(N)=O)n1	> 64	64 (≈ 154 µM)	> 64	> 64	> 64	64 (≈ 154 µM)	–
Cc1nc(-c2ccc3ccccc3c2)sc1-c1ccnc(N2CCC[C@H]2C(N)=O)n1	> 64	64 (≈ 154 µM)	> 64	> 64	> 64	> 64	–
